Results from ChEMBL document CHEMBL1795325, “Studying synergism of methyl linked cyclohexyl thiophenes with triazole: synthesis and their cdk5/p25 inhibition activity” (Eur J Med Chem, 2011).

How the values were obtained:
[1] = biological target: Cyclin-dependent kinase 5/CDK5 activator 1 (Homo sapiens, UniProt Q00535); format: protein-complex assay
Vero = assay: Cytotoxicity against african green monkey Vero C1008 cells at 6.25 to 50 ug/ml by neutral red uptake assay; format: cell-based; details: chlorocebus sabaeus
[2] = Selectivity ratio, ratio of IC50 for CDK2/Cyclin E to IC50 for CDK5/p25
[3] = biological target: Cyclin-dependent kinase 2/cyclin E1 (Homo sapiens, UniProt P24941); assay: Inhibition of CDK2/Cyclin E by scintillation proximity assay; format: protein-complex assay

Cyclin-dependent kinase 5/CDK5 activator 1, sequence (Q00535 whole entry): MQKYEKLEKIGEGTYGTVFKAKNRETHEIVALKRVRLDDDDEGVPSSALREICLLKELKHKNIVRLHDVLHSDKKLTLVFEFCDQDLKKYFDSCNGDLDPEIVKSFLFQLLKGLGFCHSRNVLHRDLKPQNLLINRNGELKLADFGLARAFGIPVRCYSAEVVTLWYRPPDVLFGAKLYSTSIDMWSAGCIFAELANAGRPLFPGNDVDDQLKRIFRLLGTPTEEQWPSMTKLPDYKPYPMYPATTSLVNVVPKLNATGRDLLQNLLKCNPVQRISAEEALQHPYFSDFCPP
Cyclin-dependent kinase 5/CDK5 activator 1, sequence (Q15078 whole entry, further chain): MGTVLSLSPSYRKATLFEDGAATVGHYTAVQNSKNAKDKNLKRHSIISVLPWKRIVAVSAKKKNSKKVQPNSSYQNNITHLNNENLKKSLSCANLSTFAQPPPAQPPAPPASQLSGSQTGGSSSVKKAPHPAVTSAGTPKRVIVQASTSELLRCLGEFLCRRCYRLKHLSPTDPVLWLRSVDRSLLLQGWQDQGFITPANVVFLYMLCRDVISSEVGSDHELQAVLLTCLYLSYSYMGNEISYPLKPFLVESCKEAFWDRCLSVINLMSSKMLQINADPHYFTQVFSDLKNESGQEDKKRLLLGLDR

Compound | IC50 [1] [nM] | Ratio IC50 [2] | IC50 [3] [nM] | Activity (Vero)
CC(=O)Nn1c(Cc2c(NC(=O)CCl)sc3c2CCCC3)nnc1SCc1n[nH]c(=S)n1N | 4030 | – | – | Non-toxic
O=C(CSc1nnc(Cc2c(NC(=O)CCl)sc3c2CCCC3)n1NC(=O)c1ccccc1)N/N=C/c1ccccc1 | 32 | > 17.5 | 560 | Non-toxic
O=C(CCl)Nc1sc2c(c1Cc1nnc(SCSc3nnc(Cc4c(NC(=O)CCl)sc5c4CCCC5)n3NC(=O)c3ccc(Cl)cc3)n1NC(=O)c1ccc(Cl)cc1)CCCC2 | 340 | – | – | Non-toxic
O=C(O)CCNc1sc2c(c1CC(=O)NNC(=S)[S-])CCCC2.[K+] | 397 | – | – | Non-toxic
O=C(CSc1nnc(Cc2c(NC(=O)CCl)sc3c2CCCC3)n1NC(=O)c1ccccc1)NNC(=O)c1ccccc1 | 468 | – | – | Non-toxic
Nn1c(S)nnc1Cc1c(NC(=O)CCl)sc2c1CCCC2 | 43 | 1.2 | 52 | Non-toxic
O=C(CSc1nnc(Cc2c(NC(=O)CCl)sc3c2CCCC3)n1NC(=O)c1ccc(Cl)cc1)N/N=C/c1ccccc1 | 35 | 1.4 | 48 | Non-toxic
Nn1c(S)nnc1CSc1nnc(Cc2c(NC(=O)CCl)sc3c2CCCC3)n1NC(=O)c1ccccc1 | 6180 | – | – | Non-toxic
CC(=O)Nn1c(Cc2c(NC(=O)CCl)sc3c2CCCC3)n[nH]c1=S | 689 | – | – | Non-toxic
CC(=O)Nn1c(Cc2c(NC(=O)CCl)sc3c2CCCC3)nnc1SCC(=O)N/N=C/c1ccccc1 | 336 | – | – | Non-toxic
CC(=O)Nn1c(Cc2c(NC(=O)CCl)sc3c2CCCC3)nnc1SCC(=O)NN | 61 | 98.1 | 5990 | Non-toxic
NNC(=O)CSc1nnc(Cc2c(NC(=O)CCl)sc3c2CCCC3)n1NC(=O)c1ccc(Cl)cc1 | 39 | 20.5 | 799 | Non-toxic
CC(=O)Nc1sc2c(c1CC(=O)NNC(=S)[S-])CCCC2.[K+] | 346 | – | – | Non-toxic
O=C(CCl)Nc1sc2c(c1Cc1n[nH]c(=S)n1NC(=O)c1ccc(Cl)cc1)CCCC2 | 343 | – | – | Non-toxic
CC(=O)Nn1c(Cc2c(NC(=O)CCl)sc3c2CCCC3)nnc1SCC#N | 61 | 21.6 | 1320 | Non-toxic
O=C(CCl)Nc1sc2c(c1Cc1n[nH]c(=S)n1NC(=O)c1ccccc1)CCCC2 | 751 | – | – | Non-toxic
CC(=O)Nn1c(Cc2c(NC(=O)CCl)sc3c2CCCC3)nnc1SCSc1nnc(Cc2c(NC(=O)CCl)sc3c2CCCC3)n1NC(C)=O | 849 | – | – | Non-toxic
COC(=O)CSc1nnc(Cc2c(NC(=O)CCl)sc3c2CCCC3)n1NC(C)=O | 695 | – | – | Non-toxic
NNC(=O)CSc1nnc(Cc2c(NC(=O)CCl)sc3c2CCCC3)n1NC(=O)c1ccccc1 | 37 | 13.2 | 487 | Non-toxic
O=C(Cc1c(NC(=O)c2ccccc2)sc2c1CCCC2)NNC(=S)[S-].[K+] | 373 | – | – | Non-toxic
O=C(CCl)Nc1sc2c(c1Cc1nnc(SCSc3nnc(Cc4c(NC(=O)CCl)sc5c4CCCC5)n3NC(=O)c3ccccc3)n1NC(=O)c1ccccc1)CCCC2 | 669 | – | – | Non-toxic
Nn1c(S)nnc1CSc1nnc(Cc2c(NC(=O)CCl)sc3c2CCCC3)n1NC(=O)c1ccc(Cl)cc1 | 2860 | – | – | Non-toxic
CC(=O)NNC(=O)CSc1nnc(Cc2c(NC(=O)CCl)sc3c2CCCC3)n1NC(=O)c1ccc(Cl)cc1 | 468 | – | – | Non-toxic
O=C(CCl)NNC(=O)CSc1nnc(Cc2c(NC(=O)CCl)sc3c2CCCC3)n1NC(=O)c1ccccc1 | 532 | – | – | Non-toxic
Nn1c(S)nnc1Cc1c(NCCC(=O)O)sc2c1CCCC2 | 268 | – | – | Non-toxic
O=C(Nc1sc2c(c1Cc1nnc(S)n1NC(=O)c1ccc(Cl)cc1)CCCC2)c1ccccc1 | 183 | – | – | –
NNC(=O)CSc1nnc(Cc2c(NC(=O)c3ccccc3)sc3c2CCCC3)n1NC(=O)c1ccccc1 | 264 | – | – | –
COC(=O)CSc1nnc(Cc2c(NC(=O)c3ccccc3)sc3c2CCCC3)n1NC(=O)c1ccc(Cl)cc1 | 293 | – | – | –

Continued by falling IC50 [1], values first:

IC50 [1] [nM] | Ratio IC50 [2] | IC50 [3] [nM] | Compound | Activity (Vero)
681 | – | – | COC(=O)CSc1nnc(Cc2c(NC(=O)CCl)sc3c2CCCC3)n1NC(=O)c1ccccc1 | Non-toxic
657 | – | – | N#CCSc1nnc(Cc2c(NC(=O)CCl)sc3c2CCCC3)n1NC(=O)c1ccccc1 | Non-toxic
621 | – | – | Nn1c(S)nnc1Cc1c(NC(=O)c2ccccc2)sc2c1CCCC2 | Non-toxic
617 | – | – | O=C(CSc1nnc(Cc2c(NC(=O)CCl)sc3c2CCCC3)n1NC(=O)c1ccc(Cl)cc1)NNC(=O)c1ccccc1 | Non-toxic
454 | – | – | CC(=O)NNC(=O)CSc1nnc(Cc2c(NC(=O)CCl)sc3c2CCCC3)n1NC(C)=O | Non-toxic
452 | – | – | CC(=O)Nn1c(Cc2c(NC(=O)CCl)sc3c2CCCC3)nnc1SCC(=O)NNC(=O)CCl | Non-toxic
443 | – | – | COC(=O)CSc1nnc(Cc2c(NC(=O)CCl)sc3c2CCCC3)n1NC(=O)c1ccc(Cl)cc1 | Non-toxic
422 | – | – | N#CCSc1nnc(Cc2c(NCCC(=O)O)sc3c2CCCC3)n1NC(=O)c1ccc(Cl)cc1 | –
386 | – | – | CC(=O)Nc1sc2c(c1Cc1nnc(S)n1N)CCCC2 | Non-toxic
363 | – | – | CC(=O)Nn1c(Cc2c(NC(=O)CCl)sc3c2CCCC3)nnc1SCC(=O)NNC(=O)c1ccccc1 | Non-toxic
350 | – | – | CC(=O)NNC(=O)CSc1nnc(Cc2c(NC(=O)CCl)sc3c2CCCC3)n1NC(=O)c1ccccc1 | Non-toxic
247 | – | – | O=C(Cc1c(NC(=O)CCl)sc2c1CCCC2)NNC(=S)[S-].[K+] | Non-toxic
229 | – | – | O=C(CCl)NNC(=O)CSc1nnc(Cc2c(NC(=O)CCl)sc3c2CCCC3)n1NC(=O)c1ccc(Cl)cc1 | Non-toxic
185 | – | – | O=C(O)CCNc1sc2c(c1Cc1nnc(SCC(=O)NNC(=O)CCl)n1NC(=O)c1ccc(Cl)cc1)CCCC2 | –
64 | 9.2 | 587 | CC(=O)Nc1sc2c(c1Cc1nnc(SCC(=O)NN)n1NC(=O)c1ccc(Cl)cc1)CCCC2 | –
58 | 19.6 | 1140 | N#CCSc1nnc(Cc2c(NC(=O)CCl)sc3c2CCCC3)n1NC(=O)c1ccc(Cl)cc1 | Non-toxic
